Test results taken from the supplement of paper PMC11451515.

Test system: SEM cells
Experiment: cell viability relative to DMSO control; higher = less cytotoxic
Conditions: 48 h
In short: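 Leukemia cells (NOMO1 or SEM, 500 cells/well; P12-Ichikawa, 1000 cells/well) were seeded in 5 μl in 1536-well plates after at least four passages of adaptation to each medium. They received library compounds in DMSO by pin dosing, 11 threefold points from 47 μM to 0.79 nM. Luminescence with CellTiter-Glo One was read after 48 h at 37°C. Viability is stated per plate relative to DMSO wells, with cell-free wells as background.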

[1] = HPLM + 10% dialyzed FBS, 0.000781 µM
[2] = HPLM + 10% dialyzed FBS, 0.00234 µM
[3] = HPLM + 10% dialyzed FBS, 0.00702 µM
[4] = HPLM + 10% dialyzed FBS, 0.0211 µM
[5] = HPLM + 10% dialyzed FBS, 0.0632 µM
[6] = HPLM + 10% dialyzed FBS, 0.19 µM
[7] = HPLM + 10% dialyzed FBS, 0.569 µM
[8] = HPLM + 10% dialyzed FBS, 1.71 µM
[9] = HPLM + 10% dialyzed FBS, 5.12 µM
[10] = HPLM + 10% dialyzed FBS, 15.4 µM
[11] = HPLM + 10% dialyzed FBS, 46.1 µM
[12] = RPMI 5 mM glucose + 10% FBS, 0.000781 µM
[13] = RPMI 5 mM glucose + 10% FBS, 0.00234 µM
[14] = RPMI 5 mM glucose + 10% FBS, 0.00702 µM
[15] = RPMI 5 mM glucose + 10% FBS, 0.0211 µM
[16] = RPMI 5 mM glucose + 10% FBS, 0.0632 µM
[17] = RPMI 5 mM glucose + 10% FBS, 0.19 µM
[18] = RPMI 5 mM glucose + 10% FBS, 0.569 µM
[19] = RPMI 5 mM glucose + 10% FBS, 1.71 µM
[20] = RPMI 5 mM glucose + 10% FBS, 5.12 µM
[21] = RPMI 5 mM glucose + 10% FBS, 15.4 µM
[22] = RPMI 5 mM glucose + 10% FBS, 46.1 µM
[23] = RPMI 5 mM glucose + 10% dialyzed FBS, 0.000781 µM
[24] = RPMI 5 mM glucose + 10% dialyzed FBS, 0.00234 µM
[25] = RPMI 5 mM glucose + 10% dialyzed FBS, 0.00702 µM
[26] = RPMI 5 mM glucose + 10% dialyzed FBS, 0.0211 µM
[27] = RPMI 5 mM glucose + 10% dialyzed FBS, 0.0632 µM
[28] = RPMI 5 mM glucose + 10% dialyzed FBS, 0.19 µM
[29] = RPMI 5 mM glucose + 10% dialyzed FBS, 0.569 µM
[30] = RPMI 5 mM glucose + 10% dialyzed FBS, 1.71 µM
[31] = RPMI 5 mM glucose + 10% dialyzed FBS, 5.12 µM
[32] = RPMI 5 mM glucose + 10% dialyzed FBS, 15.4 µM
[33] = RPMI 5 mM glucose + 10% dialyzed FBS, 46.1 µM

Row | SMILES | cell viability [1] [%] | cell viability [2] [%] | cell viability [3] [%] | cell viability [4] [%] | cell viability [5] [%] | cell viability [6] [%] | cell viability [7] [%] | cell viability [8] [%] | cell viability [9] [%] | cell viability [10] [%] | cell viability [11] [%] | cell viability [12] [%] | cell viability [13] [%] | cell viability [14] [%] | cell viability [15] [%] | cell viability [16] [%] | cell viability [17] [%] | cell viability [18] [%] | cell viability [19] [%] | cell viability [20] [%] | cell viability [21] [%] | cell viability [22] [%] | cell viability [23] [%] | cell viability [24] [%] | cell viability [25] [%] | cell viability [26] [%] | cell viability [27] [%] | cell viability [28] [%] | cell viability [29] [%] | cell viability [30] [%] | cell viability [31] [%] | cell viability [32] [%] | cell viability [33] [%]
1 | CCCC1OC2C[C@H]3[C@@H]4CCC5=CC(=O)C=C[C@]5(C)[C@H]4C(O)C[C@]3(C)[C@]2(C(=O)CO)O1 (some centres not stated) | 88.6 | 84.3 | 97.1 | 85.3 | 69 | 67 | 62.2 | 51 | 48 | 46.2 | 27.4 | 95.2 | 125 | 95.7 | 86.7 | 81.4 | 66 | 46.3 | 59.9 | 48.6 | 46.2 | 18.2 | 87.4 | 105 | 100 | 77.9 | 68.8 | 59.2 | 53.4 | 52.3 | 50.5 | 39.7 | 19.3
2 | COC1=CC=C2CN(C)CC[C@@]34\C=C/[C@H](O)C[C@@H]3OC1=C24 | 119 | 113 | 115 | 27 | 117 | 111 | 114 | 126 | 103 | 119 | 103 | – | – | – | – | – | – | – | – | – | – | – | 108 | 111 | 126 | 25.3 | 114 | 125 | 104 | 107 | 96.3 | 100 | 99.3
3 | CCOC(=O)/C=C/[C@H](C[C@@H]1CCNC1=O)NC(=O)[C@@H](CC(=O)[C@@H](NC(=O)c1cc(C)on1)C(C)C)Cc1ccc(F)cc1 | 90.8 | 101 | 103 | 90.4 | 111 | 116 | 110 | 116 | 115 | 113 | 105 | 115 | 121 | 118 | 79.8 | 127 | 116 | 123 | 127 | 115 | 97.3 | 104 | 100 | 120 | 119 | 82.5 | 136 | 133 | 128 | 127 | 129 | 132 | 108
4 | CCN(c1ccccc1)c1cc(NC)[n+](C)c(C)n1 | 110 | 107 | 108 | 101 | 107 | 114 | 99.5 | 116 | 104 | 102 | 97.9 | 111 | 97.2 | 96.4 | 105 | 99.5 | 101 | 87.7 | 100 | 105 | 95.3 | 101 | 101 | 105 | 97.4 | 108 | 99.9 | 97.4 | 105 | 99.1 | 107 | 106 | 100
5 | N=C1N[C@H]2[C@H](CS[C@H]2CCCCC(=O)O)N1 | 80.4 | 109 | 91.8 | 97.2 | 111 | 108 | 25.3 | 112 | 117 | 112 | 109 | 87.6 | 115 | 108 | 106 | 107 | 107 | 15.4 | 115 | 110 | 115 | 121 | 108 | 105 | 111 | 118 | 117 | 101 | 18.4 | 121 | 122 | 124 | 128
6 | CN1CCN(CCCN2c3ccccc3Sc3ccc(C(F)(F)F)cc32)CC1 | 74.1 | 85.4 | 88.1 | 103 | 97.3 | 101 | 106 | 105 | 107 | 102 | 106 | 83.1 | 91.4 | 90.7 | 93.9 | 94.4 | 100 | 101 | 99.4 | 98.6 | 105 | 101 | 90.6 | 94.2 | 89.9 | 94.4 | 102 | 102 | 92.7 | 104 | 107 | 112 | 86.8
7 | NC(=O)Nc1cc(-c2cccc(F)c2)sc1C(=O)N[C@H]1CCCNC1 | 88.8 | 62 | 66.4 | 46.3 | 38.2 | 28.6 | 27.5 | 27.1 | 23.3 | 19 | 20.3 | 110 | 84.4 | 71.6 | 45.2 | 45 | 37.6 | 32.7 | 27.7 | 20.4 | 11.3 | 13.7 | 98.9 | 69.4 | 52.4 | 44.5 | 32.2 | 26.3 | 25.5 | 21.3 | 16.7 | 12.4 | 10.6
8 | Cn1cc(C[C@@H](N)C(=O)O)c2ccccc21 | 92 | 105 | 95.8 | 113 | 112 | 121 | 112 | 111 | 101 | 92.3 | 76.7 | 80 | 50.1 | 79.6 | 94 | 89.8 | 96.4 | 91.1 | 97.9 | 107 | 80.9 | 62.7 | 114 | 92.1 | 102 | 106 | 97.7 | 108 | 98.8 | 97 | 102 | 96.3 | 70
9 | CC(C)Cc1ccc(C(C)C(=O)O)cc1 (configuration not stated) | 68.7 | 84.7 | 80.1 | 78.6 | 84.9 | 90.7 | 82.2 | 78.3 | 71.3 | 85.6 | 26.4 | 90.1 | 69.4 | 80.9 | 91.3 | 89.4 | 81.9 | 98.8 | 87 | 95.4 | 77.2 | 22.8 | 93.5 | 84.4 | 89.5 | 90.9 | 87.5 | 98.3 | 99.5 | 98.6 | 100 | 77.5 | 35.7
10 | CC(C)OC1=CC=C2C(=C1)O\C=C(/C2=O)C3=CC=CC=C3 | 106 | 118 | 105 | 118 | 115 | 123 | 110 | 125 | 112 | 133 | 106 | 113 | 123 | 134 | 109 | 131 | 130 | 133 | 144 | 128 | 144 | 116 | 106 | 133 | 121 | 126 | 129 | 146 | 157 | 156 | 147 | 148 | 126
11 | CC(NCCc1ccc(O)cc1)C(O)c1ccc(O)cc1 (configuration not stated) | 84.4 | 80.5 | 73 | 89 | 86.1 | 84.1 | 74.6 | 98.7 | 90.7 | 105 | 84.8 | 106 | 110 | 109 | 111 | 97.5 | 103 | 92.5 | 107 | 98.2 | 103 | 99.4 | 133 | 119 | 122 | 118 | 117 | 110 | 90.6 | 112 | 105 | 111 | 81.9
12 | COc1cccc2c1CCCC2CCCN1CCN(C2CCCCC2)CC1 (configuration not stated) | 88.4 | 85 | 80.9 | 91.1 | 91.6 | 110 | 96.9 | 88.8 | 97.1 | 83.5 | 55.3 | 87.8 | 85.6 | 89.9 | 91.1 | 101 | 107 | 103 | 97 | 81.3 | 79.1 | 42.9 | 87.7 | 83.3 | 97 | 102 | 111 | 114 | 104 | 91 | 96.7 | 87.6 | 52.5
13 | CCOC(=O)Nc1ccc(NCc2ccc(F)cc2)nc1N | 111 | 104 | 119 | 102 | 105 | 117 | 94.9 | 114 | 99.9 | 115 | 101 | 117 | 121 | 119 | 117 | 125 | 118 | 118 | 116 | 109 | 116 | 65.3 | 115 | 98.9 | 120 | 128 | 131 | 128 | 138 | 113 | 104 | 115 | 80.2
14 | COC1=CC=C(C=C1O)C/2=C/C(=O)C3=C(O2)C=C(O[C@@H]4O[C@H](CO[C@@H]5O[C@@H](C)[C@H](O)[C@@H](O)[C@H]5O)[C@@H](O)[C@H](O)[C@H]4O)C=C3O | 95.1 | 103 | 106 | 114 | 124 | 108 | 122 | 118 | 102 | 129 | 113 | 115 | 108 | 107 | 111 | 122 | 113 | 100 | 106 | 85.9 | 105 | 103 | 102 | 103 | 111 | 102 | 123 | 111 | 112 | 114 | 93.8 | 101 | 99.2
15 | CCOC1=CC=CC=C1N\2C(=O)C3=C(C=CC=C3)\N=C2C(C)N4CCN(CC4)C(=O)COC5=CC=C(Cl)C=C5 (configuration not stated) | 112 | 111 | 111 | 123 | 114 | 115 | 104 | 26.1 | 9.76 | 5.2 | 3.06 | 124 | 115 | 108 | 101 | 110 | 114 | 28 | 6.16 | 4.12 | 3.03 | 1.64 | 113 | 131 | 119 | 116 | 125 | 136 | 68.6 | 9.93 | 6.21 | 4.51 | 2.93
16 | C#CCN[C@@H]1CCc2ccccc21.CS(=O)(=O)O | 105 | 101 | 83.6 | 86.2 | 110 | 108 | 107 | 106 | 41.2 | 91.7 | 89.2 | 103 | 112 | 56.8 | 97.3 | 112 | 105 | 106 | 100 | 24.4 | 96 | 95.2 | 107 | 116 | 74.2 | 82.9 | 99.7 | 105 | 99.8 | 106 | 42.8 | 110 | 86.3
